The values below are quoted from earlier work in patent US20170348276A1 (Acerus Pharmaceutical Corporation, priority 2016, published 2017).

The conditions of data set [1]: percent of the activity of Δ9-THC.

Consider `C=C(C)[C@@H]1CCC(C)=C[C@H]1c1c(O)cc(CCCCC)cc1O` [CBD, Cannabidiol], for which the “Bioavailability from oil-based oral delivery” value (oil-based capsule, oral) was around 6%. Further, the oral bioavailability (oral administration, extensive first pass hepatic metabolism) is listed as below 5%. Also, the “bioavailability, oral-mucosal/sublingual delivery” value (sprays/lozenges) was “up to 12%”.

With `CCCCCc1cc(O)c2c(c1)OC(C)(C)c1ccc(C)cc1-2` [Cannabinol (CBN), Cannabinol], the “activity relative to Δ9-THC” value in data set [1] is listed as 10%.
